Assay results taken from PubChem BioAssay AID2060507 (Molecular Pharmacology Branch, DTP, NCI, 2025).
“And” between values parts separate entries of the source, which are not always exact repeats. Identical values can stand only once. Each block holds one molecule with its values, some of them ahead of it.

Test system: 519858-162-T-J1-PDC complex spheroid viability
Test: Anticancer human tumor 519858-162-T-J1-PDC patient-derived colon adenocarcinoma cell line growth inhibition [GQUAD]
Details: for viability, T/C: stronger effect = lower value
Excerpt: DNA G-quadruplex Stabilizer Agents in Combinations in Complex Spheroids
A high-throughput screen of multi-cell type tumor spheroids was designed to identify active combinations of DNA G-quadruplex stabilizer agents and targeted small molecules. Complex spheroids include a stromal component modeled by human endothelial cells (HUVEC) and fibroblasts modeled by human mesenchymal stem cells (MSCs). The concentration ranges selected for each drug and investigational agent were based upon clinically achievable concentrations if the clinical Cmax of the agent was known.
Compounds. The drugs and investigational agents: pidnarulex (CX-5461; NSC782164), APTO-253 (NSC789042), BRACO-19 (NSC847499), peposertib (NSC802822), ceralasertib (NSC780249), elimusertib (NSC800525), camonsertib (NSC841442), AZD-1390 (NSC803789), olaparib (NSC753686), talazoparib (NSC767125), ART-558 (NSC835418), sotorasib (NSC818433), MRTX-1133 (NSC836407), SN-38 (NSC673596), topotecan (NSC609699), etoposide (NSC141540), doxorubicin (NSC123127), gemcitabine (NSC613327), 5-fluorouracil (NSC19893), paclitaxel (NSC125973), vemurafenib (NSC761431), panobinostat (NSC761190), R-306465 (JNJ-16241199; NSC773264), adavosertib (NSC754352), TP-3654 (NSC805149), carboplatin (NSC241240), KSQ-4279 (NSC840948), and staurosporine (NSC755774) were obtained from the National Cancer Institute (NCI) Developmental Therapeutics Program Chemical Repository (34). The FDA-approved anticancer drug set is available from the NCI Developmental Therapeutics Program. […] The stock solutions were prepared in dimethyl sulfoxide (DMSO, Sigma-Aldrich, St. Louis, MO, cat. D2650) at 800-fold the tested concentration and stored at -70 degrees C prior to their use. All drugs and investigational agents were tested over a range starting from a high concentration at or near the clinical Cmax and decreasing in half-log increments. If the clinical Cmax for an agent had not been determined, the highest concentration tested was 10 microM.
2.3 Cell Culture. All cells were maintained in an incubator at 37 degrees C and 5% CO2 with 95% humidity. The PDC lines were cultured according to standard operating procedures established by the NCI PDMR. All PDCs were thawed and cultured in Matrigel-coated flasks prepared with a working solution of 1X Ham's F-12 nutrient mix, without supplementation (Invitrogen, cat. 11765054), 100 U/mL penicillin-streptomycin (Invitrogen, cat. 15140122), and 2.5% Matrigel (Corning Inc., cat. 354248) for the first three passages. The 857933-349-R-J2-PDC line was cultured in 6C/Colon 1B media, which includes advanced DMEM/F-12 (Thermo Fisher Scientific, cat. 12634028), 10 mM HEPES (Thermo Fisher Scientific, cat. 15630080), 1X GlutaMAX supplement (Thermo Fisher Scientific, cat. 35050061), 0.1 mg/mL primocin (InvivoGen, cat. ant-pm-2), 10% defined fetal bovine serum, heat inactivated (HyClone Laboratories Inc., cat. SH30070.03HI), 50% L-WRN conditioned media (ATCC, cat. CRL-3276), 1.25 mM N-Acetyl-L-cysteine (Sigma-Aldrich, cat. A9165), 10 mM nicotinamide (Sigma-Aldrich, cat. N0636), 1X B-27 supplement (Thermo Fisher Scientific, cat. 17504044), 1X N-2 supplement (Thermo Fisher Scientific, cat. 17502048), 10 microM Y-27632 dihydrochloride (Tocris Bioscience, cat. 1254), and 50 ng/mL human EGF recombinant protein (Thermo Fisher Scientific, cat. PHG0311). The 485176-168-R4-J1-PDC line was cultured in Panc media, which includes all 6C/Colon 1B media components plus 100 ng/mL human FGF-10 (Thermo Fisher Scientific, cat. 100-26), 500 nM SB-431542 (Selleckchem, cat. S1067), and gastrin (Tocris, cat. 3006).
[…]
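Further: spheroids exposed to compounds for 7 days.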
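Wherever viability, T/C is given: 100% = DMSO vehicle control viability.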

IC50 (curve of compound): 4780 nM and 2430 nM
Compound: CC1COCCN1c1cc(-c2ccnn2C)c2ccnc(-c3ccn[nH]3)c2n1 (stereo not given)
viability, T/C (compound 0.0316 µM): 103% and 94% | viability, T/C (compound 0.1 µM): 93.7% and 82.9% | viability, T/C (compound 0.316 µM): 96.7% and 65% | viability, T/C (compound 1 µM): 117% and 98.3% | viability, T/C (compound 3.16 µM): 58.8% and 39.7% | viability, T/C (compound 10 µM): 34.3% and 26.3%

IC50 (curve of compound): > 10000 nM
Compound: CC(C)n1c(=O)n(C)c2cnc3cc(F)c(-c4ccc(OCCCN5CCCCC5)nc4)cc3c21
viability, T/C (compound 0.0316 µM): 123% and 93.8% | viability, T/C (compound 0.1 µM): 107% and 102% | viability, T/C (compound 0.316 µM): 86.9% and 69.8% | viability, T/C (compound 1 µM): 108% and 91.8% | viability, T/C (compound 3.16 µM): 73.7% and 81.7% | viability, T/C (compound 10 µM): 120% and 93.2%

Compound: O=C(NO)c1cnc(N2CCN(S(=O)(=O)c3ccc4ccccc4c3)CC2)nc1 + Cc1[nH]c2ccc(F)cc2c1-c1nc2c3cccnc3c3ncccc3c2[nH]1
IC50 (curve of first compound, second compound 0.0316 µM): 353 nM | IC50 (curve of first compound, second compound 0.1 µM): 242 nM | IC50 (curve of first compound, second compound 0.316 µM): 311 nM | IC50 (curve of first compound, second compound 1 µM): 251 nM | IC50 (curve of first compound, second compound 3.16 µM): 204 nM | IC50 (curve of first compound, second compound 10 µM): 195 nM | viability, T/C (second compound 0.0316 µM, first compound 0.0316 µM): 82.3% | viability, T/C (second compound 0.0316 µM, first compound 0.1 µM): 82.8% | viability, T/C (second compound 0.0316 µM, first compound 0.316 µM): 53.8% | viability, T/C (second compound 0.0316 µM, first compound 1 µM): 10% | viability, T/C (second compound 0.0316 µM, first compound 3.16 µM): 0.42% | viability, T/C (second compound 0.0316 µM, first compound 10 µM): 0.52% | viability, T/C (second compound 0.1 µM, first compound 0.0316 µM): 102% | viability, T/C (second compound 0.1 µM, first compound 0.1 µM): 102% | viability, T/C (second compound 0.1 µM, first compound 0.316 µM): 34.3% | viability, T/C (second compound 0.1 µM, first compound 1 µM): 8.48% | viability, T/C (second compound 0.1 µM, first compound 3.16 µM): 0.31% | viability, T/C (second compound 0.1 µM, first compound 10 µM): 0.42% | viability, T/C (second compound 0.316 µM, first compound 0.0316 µM): 85.4% | viability, T/C (second compound 0.316 µM, first compound 0.1 µM): 95.8% | viability, T/C (second compound 0.316 µM, first compound 0.316 µM): 48.9% | viability, T/C (second compound 0.316 µM, first compound 1 µM): 8.61% | viability, T/C (second compound 0.316 µM, first compound 3.16 µM): 0.35% | viability, T/C (second compound 0.316 µM, first compound 10 µM): 1.29% | viability, T/C (second compound 1 µM, first compound 0.0316 µM): 75.9% | viability, T/C (second compound 1 µM, first compound 0.1 µM): 77.4% | viability, T/C (second compound 1 µM, first compound 0.316 µM): 43% | viability, T/C (second compound 1 µM, first compound 1 µM): 7.91% | viability, T/C (second compound 1 µM, first compound 3.16 µM): 0.49% | viability, T/C (second compound 1 µM, first compound 10 µM): 1.27% | viability, T/C (second compound 3.16 µM, first compound 0.0316 µM): 83% | viability, T/C (second compound 3.16 µM, first compound 0.1 µM): 87.8% | viability, T/C (second compound 3.16 µM, first compound 0.316 µM): 28.2% | viability, T/C (second compound 3.16 µM, first compound 1 µM): 5.99% | viability, T/C (second compound 3.16 µM, first compound 3.16 µM): 1.44% | viability, T/C (second compound 3.16 µM, first compound 10 µM): 0.36% | viability, T/C (second compound 10 µM, first compound 0.0316 µM): 64.7% | viability, T/C (second compound 10 µM, first compound 0.1 µM): 69.7% | viability, T/C (second compound 10 µM, first compound 0.316 µM): 36.7% | viability, T/C (second compound 10 µM, first compound 1 µM): 13.9% | viability, T/C (second compound 10 µM, first compound 3.16 µM): 0.79% | viability, T/C (second compound 10 µM, first compound 10 µM): 0.64%

IC50 (compound alone, run of 02/20/2024): 8820 nM and > 10000 nM and 9270 nM | IC50 (compound alone, run of 02/26/2024): > 10000 nM
Compound: Cc1[nH]c2ccc(F)cc2c1-c1nc2c3cccnc3c3ncccc3c2[nH]1
viability, T/C (compound 0.1 µM): 87.9% [middle of 9 runs] | viability, T/C (compound 0.316 µM): 92.2% [middle of 9 runs]
